Target: T1, Ba/F3 cell EGFR Exon20 ins NPH (Homo sapiens, UniProt P00533, INS773NPH)
T1 construct: expressed in transfected cells; host or cells: Ba/F3
Experiment: Ba/F3 cell proliferation suppression, EGFR Exon20 ins NPH
Assay type: cell-based
Conditions: GI50 class; Ba/F3 cell line with NPH inserted at Exon20 of EGFR; 72 hours
Procedure, shortened: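 Growth suppression determined as GI50 following 72 h exposure across 12 concentrations up to 50 um, with viability by luminescent ATP assay (CellTiter-Glo).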

Row | SMILES | Ba/F3 (NPH) Activity
1 | C=CC(=O)Nc1cc(Nc2cc(N3OCC[C@H]3c3c(F)cccc3F)ncn2)c(OC)cc1N1CCC(N2CCN(C(C)=O)CC2)CC1 [compound 310, N-(2-(4-(4-acetylpiperazine-1-yl)piperidine-1-yl)-5-((6-((S)-3-(2,6-difluorophenyl)isoxazolidine-2-yl)pyrimidine-4-yl)amino)-4-methoxyphenyl) acrylamide] | C (500 nM ≤ GI50 < 5000 nM)
2 | C=CC(=O)Nc1cc(Nc2cc(N3OCC[C@@H]3c3ccc(F)cc3F)ncn2)c(OC)cc1N1CCC(N(C)CCN(C)C)CC1 [compound 422, N-(5-((6-((R)-3-(2,4-difluorophenyl)isoxazolidine-2-yl)pyrimidine-4-yl)amino)-2-(4-((2-(dimethylamino)ethyl)(methyl)amino)piperidine-1-yl)-4-methoxyphenyl) acrylamide] | A (GI50 < 50 nM)
3 | C=CC(=O)Nc1cc(Nc2cc(N3OCC[C@@H]3c3ccc(Cl)c(Cl)c3F)ncn2)c(OC)cc1N1CCC(N2C[C@@H](C)O[C@@H](C)C2)CC1 [compound 773, N-(5-((6-((R)-3-(3,4-dichloro-2-fluorophenyl)isoxazolidine-2-yl)pyrimidine-4-yl)amino)-2-(4-((2S,6R)-2,6-dimethylmorpholino)piperidine-1-yl)-4-methoxyphenyl) acrylamide] | B (50 nM ≤ GI50 < 500 nM)
4 | C=CC(=O)Nc1cc(Nc2cc(N3OCC[C@@H]3Cc3ccccc3)ncn2)c(OC)cc1N1C[C@@H]2C[C@H]1CO2 [compound 962, N-(5-((6-((S)-3-benzylisoxazolidine-2-yl)pyrimidine-4-yl)amino)-2-((1S,4S)-2-oxa-5-azabicyclo [2.2.1]heptane-5-yl)-4-methoxyphenyl) acrylamide] | A (GI50 < 50 nM)
5 | C=CC(=O)Nc1cc(Nc2cc(N3OCC[C@@H]3c3cccc(F)c3Cl)ncn2)c(OC)cc1N1CCC(N2CCN(C)CC2)CC1 [compound 560, N-(5-((6-((R)-3-(2-chloro-3-fluorophenyl)isoxazolidine-2-yl)pyrimidine-4-yl)amino)-4-methoxy-2-(4-(4-methylpiperazine-1-yl)piperidine-1-yl)phenyl) acrylamide] | A (GI50 < 50 nM)
6 | C=CC(=O)Nc1cc(Nc2cc(N3OCC[C@@H]3c3ccc(Cl)c(Cl)c3F)ncn2)c(OC)cc1N1CCC(N2CCN(C(C)C)CC2)CC1 [compound 804, N-(5-((6-((R)-3-(3,4-dichloro-2-fluorophenyl)isoxazolidine-2-yl)pyrimidine-4-yl)amino)-2-(4-(4-isopropylpiperazine-1-yl)piperidine-1-yl)-4-methoxyphenyl) acrylamide] | A (GI50 < 50 nM)
7 | C=CC(=O)Nc1cc(Nc2cc(N3OCC[C@@H]3c3cccc(F)c3Cl)ncn2)c(OC)cc1N1CCC(N2C[C@H]3C[C@@H]2CO3)CC1 [compound 634, N-(2-(4-((1R,4R)-2-oxa-5-azabicyclo [2.2.1]heptane-5-yl)piperidine-1-yl)-5-((6-((R)-3-(2-chloro-3-fluorophenyl)isoxazolidine-2-yl)pyrimidine-4-yl)amino)-4-methoxyphenyl) acrylamide] | A (GI50 < 50 nM)
8 | C=CC(=O)Nc1cc(Nc2cc(N3OCC[C@@H]3c3cccc(F)c3Cl)ncn2)c(OC)cc1N1CCC(N2CCN(C(C)=O)CC2)CC1 [compound 601, N-(2-(4-(4-acetylpiperazine-1-yl)piperidine-1-yl)-5-((6-((R)-3-(2-chloro-3-fluorophenyl)isoxazolidine-2-yl)pyrimidine-4-yl)amino)-4-methoxyphenyl) acrylamide] | A (GI50 < 50 nM)
9 | C=CC(=O)Nc1cc(Nc2cc(N3OCC[C@@H]3c3ccc(Cl)cc3)ncn2)c(OC)cc1N1CC[C@@H](N2CCOCC2)C1 [compound 733, N-(5-((6-((R)-3-(4-chlorophenyl)isoxazolidine-2-yl)pyrimidine-4-yl)amino)-4-methoxy-2-((R)-3-morpholinopyrolidine-1-yl)phenyl)acrylamide] | A (GI50 < 50 nM)
10 | C=CC(=O)Nc1cc(Nc2cc(N3OCC[C@@H]3c3ccc(F)c(Cl)c3)ncn2)c(OC)cc1N1CCC(N2CCN(C(C)C)CC2)CC1 [compound 715, N-(5-((6-((R)-3-(3-chloro-4-fluorophenyl)isoxazolidine-2-yl)pyrimidine-4-yl)amino)-2-(4-(4-isopropylpiperazine-1-yl)piperidine-1-yl)-4-methoxyphenyl) acrylamide] | A (GI50 < 50 nM)
11 | C=CC(=O)Nc1cc(Nc2cc(N3OCC[C@@H]3c3cc(F)ccc3F)ncn2)c(OC)cc1N1CCC(N2C[C@@H](C)N(CC)[C@@H](C)C2)CC1 [compound 841, N-(5-((6-((R)-3-(2,5-difluorophenyl)isoxazolidine-2-yl)pyrimidine-4-yl)amino)-2-(4-((3S,5R)-4-ethyl-3,5-dimethylpiperazine-1-yl)piperidine-1-yl)-4-methoxyphenyl) acrylamide] | A (GI50 < 50 nM)
12 | C=CC(=O)Nc1cc(Nc2cc(N3OCC[C@@H]3Cc3cccnc3)ncn2)c(OC)cc1N1CCC(N2CCN(C3CC3)CC2)CC1 [compound 985, N-(2-(4-(4-cyclopropylpiperazine-1-yl)piperidine-1-yl)-4-methoxy-5-((6-((S)-3-(pyridine-3-ylmethyl)isoxazolidine-2-yl)pyrimidine-4-yl)amino)phenyl) acrylamide] | C (500 nM ≤ GI50 < 5000 nM)
13 | C=CC(=O)Nc1cc(Nc2cc(N3OCC[C@@H]3c3ccc(Cl)cc3F)ncn2)c(OC)cc1N1CCC(N2CCOCC2)CC1 [compound 455, N-(5-((6-((R)-3-(4-chloro-2-fluorophenyl)isoxazolidine-2-yl)pyrimidine-4-yl)amino)-4-methoxy-2-(4-morpholinopiperidine-1-yl)phenyl)acrylamide] | A (GI50 < 50 nM)
14 | C=CC(=O)Nc1cc(Nc2cc(N3OCC[C@H]3c3c(F)cccc3F)ncn2)c(OC)cc1N1CCC(N2C[C@@H](C)O[C@@H](C)C2)CC1 [compound 309, N-(5-((6-((S)-3-(2,6-difluorophenyl)isoxazolidine-2-yl)pyrimidine-4-yl)amino)-2-(4-((2S,6R)-2,6-dimethylmorpholino)piperidine-1-yl)-4-methoxyphenyl) acrylamide] | C (500 nM ≤ GI50 < 5000 nM)
15 | C=CC(=O)Nc1cc(Nc2cc(N3OCC[C@@H]3c3ccc(F)c(Cl)c3F)ncn2)c(OC)cc1N1CCN(C)[C@@H](C)C1 [compound 665, N-(5-((6-((R)-3-(3-chloro-2,4-difluorophenyl)isoxazolidine-2-yl)pyrimidine-4-yl)amino)-2-((S)-3,4-dimethylpiperazine-1-yl)-4-methoxyphenyl) acrylamide] | B (50 nM ≤ GI50 < 500 nM)
16 | C=CC(=O)Nc1cc(Nc2cc(N3OCC[C@@H]3Cc3cccc(Cl)c3Cl)ncn2)c(OC)cc1N1CCC(N2CCN(C3CC3)[C@H](C)C2)CC1 [compound 980, N-(2-(4-((R)-4-cyclopropyl-3-methylpiperazine-1-yl)piperidine-1-yl)-5-((6-((S)-3-(2,3-dichlorobenzyl)isoxazolidine-2-yl)pyrimidine-4-yl)amino)-4-methoxyphenyl) acrylamide] | A (GI50 < 50 nM)
17 | C=CC(=O)Nc1cc(Nc2cc(N3OCC[C@@H]3c3ccc(F)c(Cl)c3F)ncn2)c(OC)cc1N(C)CCN(C)C [compound 603, N-(5-((6-((R)-3-(3-chloro-2,4-difluorophenyl)isoxazolidine-2-yl)pyrimidine-4-yl)amino)-2-((2-(dimethylamino)ethyl)(methyl)amino)-4-methoxyphenyl) acrylamide] | A (GI50 < 50 nM)
18 | C=CC(=O)Nc1cc(Nc2cc(N3OCC[C@H]3Cc3ccccc3)ncn2)c(OC)cc1N(C)CCN(C)C [compound 973, N-(5-((6-((R)-3-benzylisoxazolidine-2-yl)pyrimidine-4-yl)amino)-2-((2-(dimethylamino)ethyl) (methyl)amino)-4-methoxyphenyl) acrylamide] | B (50 nM ≤ GI50 < 500 nM)
19 | C=CC(=O)Nc1cc(Nc2cc(N3OCC[C@@H]3c3cc(F)cc(F)c3)ncn2)c(OC)cc1N1CCN(C)C[C@@H]1C [compound 919, N-(5-((6-((R)-3-(3,5-difluorophenyl)isoxazolidine-2-yl)pyrimidine-4-yl)amino)-2-((S)-2,4-dimethylpiperazine-1-yl)-4-methoxyphenyl) acrylamide] | A (GI50 < 50 nM)
20 | C=CC(=O)Nc1cc(Nc2cc(N3OCC[C@@H]3c3cccc(C)c3F)ncn2)c(OC)cc1N1CCC(N2CC[C@H](N(C)C)C2)CC1 [compound 910, N-(2-(4-((S)-3-(dimethylamino)pyrolidine-1-yl)piperidine-1-yl)-5-((6-((R)-3-(2-fluoro-3-methylphenyl)isoxazolidine-2-yl)pyrimidine-4-yl)amino)-4-methoxyphenyl) acrylamide] | A (GI50 < 50 nM)
21 | C=CC(=O)Nc1cc(Nc2cc(N3OCC[C@@H]3c3cccc(F)c3)ncn2)c(OC)cc1N1CC[C@@H](N2CCOCC2)C1 [compound 323, N-(5-((6-((R)-3-(3-fluorophenyl)isoxazolidine-2-yl)pyrimidine-4-yl)amino)-4-methoxy-2-((R)-3-morpholinopyrolidine-1-yl)phenyl) acrylamide] | A (GI50 < 50 nM)
22 | C=CC(=O)Nc1cc(Nc2cc(N3OCC[C@@H]3c3cc(F)ccc3F)ncn2)c(OC)cc1N1CCC(N2CC3CCC(C2)O3)CC1 [compound 820, N-(2-(4-(8-oxa-3-azabicyclo[3.2.1]octan-3-yl)piperidine-1-yl)-5-((6-((R)-3-(2,5-difluorophenyl)isoxazolidine-2-yl)pyrimidine-4-yl)amino)-4-methoxyphenyl) acrylamide] | A (GI50 < 50 nM)
23 | C=CC(=O)Nc1cc(Nc2cc(N3OCC[C@@H]3c3cc(F)cc(Cl)c3)ncn2)c(OC)cc1N1CCC(N2C[C@@H]3C[C@H]2CO3)CC1 [compound 592, N-(2-(4-((1S,4S)-2-oxa-5-azabicyclo[2.2.1]heptane-5-yl)piperidine-1-yl)-5-((6-((R)-3-(3-chloro-5-fluorophenyl)isoxazolidine-2-yl)pyrimidine-4-yl)amino)-4-methoxyphenyl) acrylamide] | A (GI50 < 50 nM)
